Source: patent US10716787B2, “Combinations” (ASTEX THERAPEUTICS LTD, priority 2014, dated 2020)

Columns and labels:
[1] = test system: NCI-H1581 cells; test: Incucyte proliferation (confluence over time), prolonged treatment of NCI-H1581 cells; assay type: cell-based; conditions: 1 microM each agent
Method: (§1) Therefore, NCI-H1581 cells were plated onto 10 cm Collagen I coated plates and placed in an incubator at 37° C., 5% CO2. […] In the case of the parental cells with or without DMSO control, when the cells reached the confluence close to 100% they were trypsinized and re-plated back on the plate. […] After about 3 weeks from the initial treatment, cells were taken out of the plate by trypsinization and passaged on new plate for further expanding. […] (test 1)
The proliferation of the cells was followed using the Incucyt machine, measuring the confluence of the cells over time.

[2] = test system: resistant NCI-H1581 xenografts; test: In vivo study, resistant NCI-H1581 xenografts; design: species or system Athymic nude mice; conditions: compound A 25 mg/kg p.o. QD for 37 d
Method: Athymic nude mice were inoculated with resistant NCI-H1581 cells (10e^6 cells/200 μl with matrigel, ratio 1:1, into the inguinal region of the mice).
All mice (84) were put into groups (4) and treated from the day of the cell injection.
The mice were treated orally (po), normal volume (250 μl/25 g) once daily and this for 37 days (QD×37). Measurement of the tumor volume was done at day 0, 5, 12, 15, 20, 23, 27, 30, 33, 37.
At day 37 all animals were sacrificed.

[3] = test system: Parental, unsorted H1581 cells; test: Incucyte live cell imaging proliferation, parental unsorted H1581 cells; assay type: cell-based; design: dose or concentration left out as unconfirmed; conditions: four days
Method: Inhibition of growth of H1581^MET(+) cells by combination of FGFR and MET inhibitors. Parental, unsorted H1581 cells, and sorted H1581^Met(+) cells, subpopulation of H1581 cells that have high Met expression, were plated at 75000 cells per well in 24 well plate. […] Images were acquired every two hours. Proliferation of cells was presented as the mean of percentage of confluence±SD (n=2).

[4] = test system: most sensitive cancer cell lines; test: Alamar blue cell based proliferation assay, most sensitive cancer cell lines
Method: (§2) Cells were seeded in 180 μl of medium at optimized cell densities in black 96 well plates with clear flat bottom. The outer wells were filled with 180 μl of medium. Cells were incubated for 24 hours at 37° C. and 5% CO2.
(§3) Next day compound dilutions were prepared in a 96 well plate with round bottom (Corning #3365). A 50× dilution of the compound was prepared in medium, 4 μl of compound stock in 196 μl of medium in a 96 well plate (Corning #3585).
(§4) Compound/medium plates were placed on a shaker for 10 minutes and then 20 μl of compound in medium was added to the cells (10× dilution). Cells were incubated at 37° C. and 5% CO2 for 4 days until alamarBlue® readout.
(§5) After 4 days of incubation with compound: Add 40 μl of alamarBlue® ready to use mix to each well. Incubate plates at 37° C. and 5% CO2. Measure plates after 4 or 6 hours of incubation (depends on cell line). Shake plates and measure RFU at ex.: 544 nm and em.: 590 nm
(§6) The alamarBlue® Assay incorporates a fluorometric/colorimetric growth indicator based on detection of metabolic activity. Specifically, the system incorporates an oxidation-reduction (REDOX) indicator that both fluoresces and changes color in response to chemical reduction of growth medium resulting from cell growth.

[5] = test system: Met oncogene; test: Microarray gene expression profiling of resistant versus parental NCI-H1581 cells; assay type: cell-based; conditions: 1 microM, 1 day, 1 week and 2 weeks
Method: as §1

[6] = test system: parental NCI-H1581 cells; test: Alamar blue proliferation assay, parental NCI-H1581 cells; assay type: cell-based; conditions: for IC50: 4 days incubation
Method: as §1
(§7) Therefore the parental and resistant cells were profiled on phosphoRTK (receptor tyrosine kinase) arrays, and also for Met total protein expression and phosphorylation. The sensitivity of the cells to selected Met inhibitors (compound C and D) in the Alamar blue proliferation assay was also tested.
as §2, §3, §4, §5, §6

[7] = test system: resistant NCI-H1581 cells; test: Alamar blue proliferation assay, resistant NCI-H1581 cells; assay type: cell-based; conditions: for IC50: Resistant cells, 4 days incubation, repeated experiments
Method: The insensitive cells were isolated and profiled with the aim to determine the active signaling pathways that act as drivers for their survival and/or proliferation. Therefore, NCI-H1581 cells were plated onto 10 cm Collagen I coated plates and placed in an incubator at 37° C., 5% CO2. […] In the case of the parental cells with or without DMSO control, when the cells reached the confluence close to 100% they were trypsinized and re-plated back on the plate. In the compound treated plates outgrowth of resistant clones were observed. After about 3 weeks from the initial treatment, cells were taken out of the plate by trypsinization and passaged on new plate for further expanding. […] (test 1)
as §7, with “tested. […] Parental NCI-H1581 cells had very low detectable levels of Met protein, and no signal for Met protein phosphorylation (see FIG. 1).” for “tested.”
as §2, §3, §4, §5, §6

[8] = test system: Met protein; test: Western blotting of Met phosphorylation in resistant NCI-H1581 cells; assay type: cell-based; conditions: 300 nM, 30 minutes
Method: FIG. 1: Western blotting of protein lysates derived from parental and resistant NCI-H1581 cells treated without (−) or with (+) Met inhibitor, 300 nM compound C, for 30 minutes.
as §7, with “tested. […] Parental NCI-H1581 cells had very low detectable levels of Met protein, and no signal for Met protein phosphorylation (see FIG. 1).” for “tested.”

[9] = Homo sapiens, NCI-H1581, 96 h, Parental cells

Row | Structure (SMILES) | proliferation of the parental NCI-H1581 cells (in words) [6] | IC50 [6, 9] [nM] | proliferation of the resistant NCI-H1581 cells (in words) [7] | IC50 ([7]; Homo sapiens, NCI-H1581, 96 h) [nM] | IC50 [7] [nM] | also measured
1 | COc1cc(OC)cc(N(CCNC(C)C)c2ccc3ncc(-c4cnn(C)c4)nc3c2)c1 [compound A, N-(3,5-dimethoxyphenyl)-N′-(1-methylethyl)-N-[3-(1-methyl-1H-pyrazol-4-yl)quinoxalin-6-yl]ethane-1,2-diamine] | – | – | – | – | – | emergence of resistance (outgrowth of insensitive cells) ([1]; continuous treatment): after about three weeks emerging outgrowth of compound insensitive cells was observed; tumor growth [2]: did not have effect on tumor growth; cell growth (confluence) [3]: equally inhibited
2 | COc1cc(OC)c(F)c(N(Cc2ncc[nH]2)c2ccc3ncc(-c4cnn(C)c4)nc3n2)c1 [compound B, N-(2-fluoro-3,5-dimethoxyphenyl)-N-(1H-imidazol-2-ylmethyl)-3-(1-methyl-1H-pyrazol-4-yl)pyrido[2,3-b]pyrazin-6-amine] | – | – | – | – | – | IC50 [4]: < 10 nM; Met oncogene expression (microarray) [5]: upregulated in a time dependent manner
3 | Cn1cc(-c2ccc3nnc(C(F)(F)c4ccc5ncccc5c4)n3n2)cn1 [compound C, 6-{Difluoro[6-(1-methyl-1H-pyrazol-4-yl)[1,2,4]triazolo[4,3-b]pyridazin-3-yl]methyl}quinoline] | but not of the parental NCI-H1581 cells | > 30000 | strongly inhibited | – | – | Met phosphorylation [8]: down regulated significantly
4 | FC(F)(c1ccc2ncccc2c1)c1nnc2ccc(-c3ccncc3)nn12 [compound D, 6-[Difluoro(6-pyridin-4-yl[1,2,4]triazolo[4,3-b]pyridazin-3-yl)methyl]quinoline] | but not of the parental NCI-H1581 cells | > 10000 | strongly inhibited | 341 | 444 | IC50 ([6]; Homo sapiens, NCI-H1581, 96 h, Parental cells + DMSO): > 30000 nM; proliferation (confluence of the cells over time) [1]: did not impact the proliferation
5 | C[C@@H](Oc1cc(-c2cnn(C3CCNCC3)c2)cnc1N)c1c(Cl)ccc(F)c1Cl [crizotinib, reference compound] | – | 6910 | – | 198 | 165 | IC50 ([6]; Parental cells): 4950 nM
